This note sets out measurements from patent publication US10499641B2 (priority 2010, dated 2019).

Experiment [1] relates to Phytophthora infestans. The class given is in vivo. The settings on record: young tomato plants, sprayed, active ingredient concentration 100 ppm, inoculated 1 day after treatment, evaluation 7 days after inoculation; 100% = no infection.
The subject of experiment [2] is Plasmopara viticola. Put plainly: Plasmopara test (grapevine)/protective. To be noted: young grapevine plants, sprayed, active ingredient concentration 10 ppm, evaluation 6 days after inoculation; 100% = no infection. The experiment is classed as in vivo. How it is done: Plasmopara Test (Grapevine)/Protective
• Solvent: 24.5 parts by weight of acetone • 24.5 parts by weight of dimethylacetamide • Emulsifier: 1 part by weight of alkylaryl polyglycol ether
[To produce an appropriate active ingredient formulation, 1 part by weight of active ingredient is mixed with the specified amounts of solvent and emulsifier, and the concentrate is diluted with water to the desired concentration.
To test for protective efficacy, young plants are sprayed with the active ingredient formulation at the stated application rate. After the spray coating has dried on, the plants are inoculated with an aqueous spore suspension of Plasmopara viticola and then remain in an incubation cabin at approx. 20° C. and 100% relative air humidity for 1 day. Subsequently, the plants are placed in a greenhouse at approx. 21° C. and approx. 90% air humidity for 4 days. The plants are then moistened and placed in an incubation cabin for 1 day.
Evaluation follows 6 days after the inoculation. 0% means an efficacy which corresponds to that of the control, whereas an efficacy of 100% means that no infection is observed.
In this test, the following inventive compounds show, at an active ingredient concentration of 10 ppm, an efficacy of 70% or more: […]

Consider `CCS(=O)(=O)Oc1ccc(C2CC(c3csc(C4CCN(C(=O)Cn5nc(C(F)(F)F)cc5C)CC4)n3)=NO2)cc1` (stereo not drawn) [Example I-97], for which the Eff. % in experiment [1] worked out at 95%. Same read-out and setting: with `Cc1ccc(Cl)cc1NC(=O)N1CCC(c2nc(C3=NOC(c4ccccc4C=NOC(C)C)C3)cs2)CC1` (mixture of isomers) [Example I-37] the figure was 100%; with `CCON=Cc1cccc(C2CC(c3csc(C4CCN(C(=O)Cn5nc(C(F)(F)F)cc5C)CC4)n3)=NO2)c1` (stereo not drawn) [Example I-11], 100%.

On to `CON=C(C)c1ccccc1C1CC(c2csc(C3CCN(C(=O)Cn4nc(C(F)F)cc4C(F)F)CC3)n2)=NO1` (mixture of isomers) [Example I-32], for which the Eff. % in experiment [2] stood at 85%; in experiment [1], 100%.

Regarding `N#CCOc1cccc(F)c1C1CC(c2csc(C3CCN(C(=O)Cn4nc(C(F)F)cc4C(F)F)CC3)n2)=NO1` (stereo not drawn) [Example I-113], the Eff. % was found to be 100% in experiment [2] and 85% in experiment [1].

In the case of `CC(=O)Nc1ccc(C2CC(c3csc(C4CCN(C(=O)Cn5nc(C(F)F)cc5C(F)F)CC4)n3)=NO2)cc1` (stereo not drawn) [Example I-25], the Eff. % in experiment [2] came to 97%. As to `CCON=Cc1cccc(C2CC(c3csc(C4CCN(C(=O)Cn5nc(C(F)F)cc5C(F)F)CC4)n3)=NO2)c1` (mixture of isomers) [Example I-24], the Eff. % in experiment [1] turned out to be 100%. In experiment [1], `Cc1ccc(S(=O)(=O)Oc2ccccc2C2(C)CC(c3csc(C4CCN(C(=O)Cn5nc(C(F)F)cc5C)CC4)n3)=NO2)cc1` (stereo not drawn) [Example I-49] yielded an Eff. % of 94%. Turning to `CC(=O)OCc1ccccc1C1CC(c2csc(C3CCN(C(=O)Cn4nc(C(F)F)cc4C(F)F)CC3)n2)=NO1` (stereo not drawn) [Example I-55], the Eff. % in experiment [2] stood at 92%; in experiment [1], 94%. The corresponding values for `Cc1ccc(Cl)cc1NC(=O)N1CCC(c2nc(C3=NOC(c4cccc(C=NO)c4)C3)cs2)CC1` (mixture of isomers) [Example I-14] are 100% and 100%. For the compound `Cc1ccc(Cl)cc1NC(=O)N1CCC(c2nc(C3=NOC(c4cccc(C=NOC(C)C)c4)C3)cs2)CC1` (stereo not drawn) [Example I-13], the Eff. % in experiment [1] is on record as 100%.

`Cc1cc(C(F)(F)F)nn1CC(=O)N1CCC(c2nc(C3=NOC(c4ccc(OS(C)(=O)=O)cc4)C3)cs2)CC1` (stereo not drawn) [Example I-96] displayed an Eff. % in experiment [1] of 95%.

In the case of `COCCSCc1ccccc1C1CC(c2csc(C3CCN(C(=O)Cn4nc(C(F)F)cc4C(F)F)CC3)n2)=NO1` (stereo not drawn) [Example I-100], in experiment [1], the Eff. % was determined as 100%. Same read-out and setting: for `C=CCOCc1ccccc1C1CC(c2csc(C3CCN(C(=O)Cn4nc(C(F)(F)F)cc4C)CC3)n2)=NO1` (stereo not drawn) [Example I-93] the value was 95%. `Cc1cc(C(F)F)nn1CC(=O)N1CCC(c2nc(C3=NOC(C)(c4ccccc4OS(C)(=O)=O)C3)cs2)CC1` (stereo not drawn) [Example I-44]: in experiment [1], the Eff. % was found to be 94%. In experiment [2], `N#CCOc1cccc(Cl)c1C1CC(c2csc(C3CCN(C(=O)Cn4nc(C(F)F)cc4C(F)F)CC3)n2)=NO1` (stereo not drawn) [Example I-75] returned an Eff. % of 100%. Regarding `O=C(Cn1nc(C(F)F)cc1C(F)F)N1CCC(c2nc(C3=NOC(c4cccc(OCC#Cc5cccc6ccccc56)c4)C3)cs2)CC1` (stereo not drawn) [Example I-137], the Eff. % in experiment [1] turned out to be 100%. In turn, `Cc1cc(C(F)(F)F)nn1CC(=O)N1CCC(c2nc(C3=NOC(c4ccc(OS(=O)(=O)C5CC5)cc4)C3)cs2)CC1` (stereo not drawn) [Example I-98] yielded an Eff. % in experiment [1] of 95%.

As to `CS(=O)(=O)Oc1cc(Cl)ccc1C1CC(c2csc(C3CCN(C(=O)Cn4nc(C(F)F)cc4C(F)F)CC3)n2)=NO1` (stereo not drawn) [Example I-70], the Eff. % in experiment [1] is on record as 97%. Still for that read-out and setting: with `N#CCOc1cccc(C2CC(c3csc(C4CCN(C(=O)Cn5nc(C(F)F)cc5C(F)F)CC4)n3)=NO2)c1` (stereo not drawn) [Example I-110] the figure was 100%; with `COCCS(=O)(=O)Cc1ccccc1C1CC(c2csc(C3CCN(C(=O)Cn4nc(C(F)(F)F)cc4C)CC3)n2)=NO1` (stereo not drawn) [Example I-45], 94%; with `Cc1cc(C(F)F)nn1CC(=O)N1CCC(c2nc(C3=NOC(c4ccccc4OS(C)(=O)=O)C3)cs2)CC1` (stereo not drawn) [Example I-51], 97%. Still for that read-out and setting: for `C=CCOCc1ccccc1C1CC(c2csc(C3CCN(C(=O)Cn4nc(C(F)F)cc4C(F)F)CC3)n2)=NO1` (stereo not drawn) [Example I-94] the value was 100%; for `CC(=NOC(C)C)c1ccccc1C1CC(c2csc(C3CCN(C(=O)Cn4nc(C(F)(F)F)cc4C)CC3)n2)=NO1` (mixture of isomers) [Example I-30], 100%; for `CC(=NOC(C)C)c1cccc(C2CC(c3csc(C4CCN(C(=O)Cn5nc(C(F)F)cc5C(F)F)CC4)n3)=NO2)c1` (mixture of isomers) [Example I-20], 100%. `O=C(Cn1nc(C(F)F)cc1C(F)F)N1CCC(c2nc(C3=NOC(c4ccccc4OC(=O)C4(Cl)CC4)C3)cs2)CC1` (stereo not drawn) [Example I-107] displayed an Eff. % in experiment [1] of 100%. Same read-out and setting: for `Cc1cc(C(F)(F)F)nn1CC(=O)N1CCC(c2nc(C3=NOC(c4cccc(OS(=O)(=O)C5CC5)c4)C3)cs2)CC1` (stereo not drawn) [Example I-101] the value was 100%. The same measure, in the same setting: for `CC(=NOC(C)C)c1cccc(C2CC(c3csc(C4CCN(C(=O)Cn5nc(C(F)(F)F)cc5C)CC4)n3)=NO2)c1` (mixture of isomers) [Example I-9] the value was 100%; for `CC(C)ON=Cc1ccccc1C1CC(c2csc(C3CCN(C(=O)Cn4nc(C(F)F)cc4C(F)F)CC3)n2)=NO1` (mixture of isomers) [Example I-42], 100%; for `CC(C)ON=Cc1cccc(C2CC(c3csc(C4CCN(C(=O)Cn5nc(C(F)F)cc5C(F)F)CC4)n3)=NO2)c1` (mixture of isomers) [Example I-6], 100%. The same measure, in the same setting: for `N#CCOc1cc(Cl)ccc1C1CC(c2csc(C3CCN(C(=O)Cn4nc(C(F)F)cc4C(F)F)CC3)n2)=NO1` (stereo not drawn) [Example I-71] the value was 100%; for `COCC[S+]([O-])Cc1ccccc1C1CC(c2csc(C3CCN(C(=O)Cn4nc(C(F)F)cc4C(F)F)CC3)n2)=NO1` (stereo not drawn) [Example I-56], 94%; for `Cc1ccc(C)c(NC(=O)N2CCC(c3nc(C4=NOC(c5c(Cl)cccc5OS(C)(=O)=O)C4)cs3)CC2)c1` (stereo not drawn) [Example I-52], 94%. `C=CCOCc1ccccc1C1CC(c2csc(C3CCN(C(=O)Cn4nc(C(F)F)cc4C(F)F)CC3)n2)=NO1` (stereo not drawn) [Example I-139] came in with an Eff. % in experiment [1] of 80%. Same read-out and setting: with `CCNC(=O)Oc1ccccc1C1CC(c2csc(C3CCN(C(=O)Cn4nc(C(F)F)cc4C(F)F)CC3)n2)=NO1` (stereo not drawn) [Example I-136] the figure was 93%. Still for that read-out and setting: for `Cc1cc(C(F)(F)F)nn1CC(=O)N1CCC(c2nc(C3=NOC(c4cccc(C=NOC(C)C)c4)C3)cs2)CC1` (mixture of isomers) [Example I-8] the value was 100%. The compound `CON=Cc1cccc(C2CC(c3csc(C4CCN(C(=O)Cn5nc(C(F)F)cc5C(F)F)CC4)n3)=NO2)c1` (mixture of isomers) [Example I-16] yielded an Eff. % in experiment [2] of 94%. In turn, `Cc1cc(C(F)(F)F)nn1CC(=O)N1CCC(c2nc(C3=NOC(c4ccccc4NC=O)C3)cs2)CC1` (stereo not drawn) [Example I-109] yielded an Eff. % in experiment [1] of 100%. `Cc1ccc(S(=O)(=O)Oc2ccccc2C2(C)CC(c3csc(C4CCN(C(=O)Cn5nc(C(F)F)cc5C(F)F)CC4)n3)=NO2)cc1` (stereo not drawn) [Example I-48] displayed an Eff. % in experiment [1] of 94%. The same measure, in the same setting: with `CS(=O)(=O)Oc1ccc(F)c(C2CC(c3csc(C4CCN(C(=O)Cn5nc(C(F)F)cc5C(F)F)CC4)n3)=NO2)c1F` (stereo not drawn) [Example I-50] the figure was 94%; with `CCON=Cc1cccc(C2CC(c3csc(C4CCN(C(=O)Nc5cc(Cl)ccc5C)CC4)n3)=NO2)c1` (mixture of isomers) [Example I-12], 95%; with `Cc1cc(C(F)(F)F)nn1CC(=O)N1CCC(c2nc(C3=NOC(c4cccc(F)c4OCC#N)C3)cs2)CC1` (stereo not drawn) [Example I-111], 98%. For the compound `C=CC(=O)Oc1ccccc1C1CC(c2csc(C3CCN(C(=O)Cn4nc(C(F)(F)F)cc4C)CC3)n2)=NO1` (stereo not drawn) [Example I-104], the Eff. % in experiment [1] stood at 97%.

As to `O=C(O)c1ccccc1C1CC(c2csc(C3CCN(C(=O)Cn4nc(C(F)F)cc4C(F)F)CC3)n2)=NO1` (stereo not drawn) [Example I-134], the Eff. % in experiment [1] is given as 93%. In experiment [1], `CC(=NOC(C)C)c1ccccc1C1CC(c2csc(C3CCN(C(=O)Cn4nc(C(F)F)cc4C(F)F)CC3)n2)=NO1` (mixture of isomers) [Example I-28] had an Eff. % of 100%.

Take `CCS(=O)(=O)Oc1cccc(C2CC(c3csc(C4CCN(C(=O)Cn5nc(C(F)(F)F)cc5C)CC4)n3)=NO2)c1` (stereo not drawn) [Example I-99]: in experiment [1], the Eff. % is recorded as 100%. The same measure, in the same setting: for `CC1(c2ccccc2OS(C)(=O)=O)CC(c2csc(C3CCN(C(=O)Cn4nc(C(F)F)cc4C(F)F)CC3)n2)=NO1` (stereo not drawn) [Example I-43] the value was 94%.

`Cc1cc(C(F)(F)F)nn1CC(=O)N1CCC(c2nc(C3=NOC(c4cccc(OCC#N)c4)C3)cs2)CC1` (stereo not drawn) [Example I-95] came in with an Eff. % in experiment [1] of 100%.

`Cc1cc(C(F)(F)F)nn1CC(=O)N1CCC(c2nc(C3=NOC(c4ccccc4C=NOC(C)C)C3)cs2)CC1` (mixture of isomers) [Example I-39]: in experiment [1], the Eff. % is given as 100%.

Consider `CCON=Cc1ccccc1C1CC(c2csc(C3CCN(C(=O)Nc4cc(Cl)ccc4C)CC3)n2)=NO1` (mixture of isomers) [Example I-33], for which the Eff. % in experiment [1] came to 100%.
